Values after ≈ are worked out from the molar mass of the structure shown. “Also recorded” adds a separate entry of the source. Like-named read-outs stand apart in the source and are kept apart here.
Columns and labels:
[1] = cited from earlier work
fungi and bacteria = conditions: cited from earlier work
[2] = Water solubility of hydroxyitraconazole isomers and itraconazole; assay type: physicochemical
Description: The isomers of cis hydroxyitraconazole were tested for water solubility against a […] standard solution of hydroxyitraconazole. […] The values for 3+4 and 11+12 are barely above the LOD, giving accuracies of ±10%. In every case, solubilities were in the 10^1 to 10^2 ng/ml range.

Sacchromyces cerevisae = experiment: Kirby-Bauer Testing, Saccharomyces cerevisiae; assay type: cell-based; conditions: Saccharomyces cerevisiae, 10 μl of 10 mg/mL per disk, 30° C., 16 hours
Description: The hydroxyitraconazole isomers were tested for biological activity according three different assays.
Actively growing cultures of Candida albicans, Cryptococcus neoformens and Saccharomyces cerevisiae were prepared as described above. The cultures were diluted to a 0.5 McFarland standard and swabbed onto a 150 mm Sabouraud Dextrose agar plates. Paper disks (7 mm) were placed onto the agar plates using a disk dispenser. […] The plates were then incubated at 30° C. for 16 hours. Zones of inhibition were then measured in mm.

synthesis of ergosterol = conditions: cited from earlier work
[3] = cited from earlier work; remark: listed apart in the source
Candida albicans [4] = experiment: Antifungal MIC, Candida albicans; assay type: cell-based; conditions: Candida albicans
Description: (§1) A 10 mL tube containing 4 mL of Sabourauds dextrose broth was inoculated with 1 colony of Candida albicans picked from a plate of pure culture. The strain was ordered from the American Type Culture Collection (ATCC). The organism was grown for 4 hours at 30° C. while shaking at 150 RPM. While the organism was growing, samples of hydroxy-itraconazoles were solubilized to a concentration of 10 mg/mL in DMSO. Each sample was then diluted 1:10 to make 1 mg/mL samples or 1000 μg/mL. These samples were then diluted by serial 2-fold dilutions to produce samples now containing 1000, 500, 250, 125, 62.5, 31.25, 15.6 μg/mL. […] At 4 hours of growth time the Candida albicans was diluted to a 0.5 McFarland standard representing about 10^5 -10^6 cells/mL and 1 μL of this inoculum placed into each test well of the microtiter dish. The dish was then covered and incubated at 30° C. for 16 hours.

Candida albicans [5] = experiment: Kirby-Bauer Testing, Candida albicans; assay type: cell-based; conditions: 10 μl of 10 mg/mL per disk, 30° C., 16 hours
Description: The hydroxyitraconazole isomers were tested for biological activity according three different assays. Table 2 summarizes the results of Kirby-Bauer Testing against three actively growing cultures: Candida albicans, Cryptococcus neoformens and Saccromyces cerevisiae. […] A 10 mL tube containing 4 mL of Sabourauds dextrose broth was inoculated with 1 colony of Candida albicans picked from a plate of pure culture. The strain was ordered from the American Type Culture Collection (ATCC). The organism was grown for 4 hours at 30° C. while shaking at 150 RPM. While the organism was growing, samples of hydroxy-itraconazoles were solubilized to a concentration of 10 mg/mL in DMSO. Each sample was then diluted 1:10 to make 1 mg/mL samples or 1000 μg/mL. […] A 96-well microtiter dish was set up with 98 μL of liquid growth media in each test well, along with 1 μL of hydroxy-itraconazole solution. At 4 hours of growth time the Candida albicans was diluted to a 0.5 McFarland standard representing about 10^5 -10^6 cells/mL and 1 μL of this inoculum placed into each test well of the microtiter dish. The dish was then covered and incubated at 30° C. for 16 hours. Actively growing cultures of Candida albicans, Cryptococcus neoformens and Saccharomyces cerevisiae were prepared as described above. […] Zones of inhibition were then measured in mm.

cytochrome P450 3A4 [6] = target: T1, cytochrome P450 3A4 (Homo sapiens, UniProt P08684)
A. fumigatis = experiment: Antifungal MIC, A. fumigatis; assay type: cell-based; conditions: A. fumigatis (Table 3)
Description: [The source words this procedure for another organism and reports this organism under the same test.] as §1

Cr. neoformens = experiment: Antifungal MIC, Cr. neoformens; assay type: cell-based, Cryptococcus neoformens; conditions: Cryptococcus; Cr. neoformens (Table 3)
Description: [The source words this procedure for another organism and reports this organism under the same test.] as §1

Aspergillis = experiment: Kirby-Bauer Testing, Aspergillis; assay type: cell-based; conditions: 16 h, 10 μl of 10 mg/mL per disk
S. cerevisae = experiment: Antifungal MIC, S. cerevisae; assay type: cell-based, Saccharomyces cerevisiae; conditions: Saccharomyces cerevisiae; S. cerevisae (Table 3)
Description: [The source words this procedure for another organism and reports this organism under the same test.] as §1

[7] = Water solubility of hydroxyitraconazole phosphate isomers (NMG salts); assay type: physicochemical; conditions: water; Table 8
Text: The water solubility of the NMG salts of the phosphate esters of isomers 1, 2 and 3+4 were investigated and compared to the corresponding hydroxyitraconazole isomers 1, 2 and 3+4. The phosphate esters were as much as 10^7 times more water soluble than the corresponding hydroxyitraconazole isomer.

Cryptococcus neoformens = experiment: Kirby-Bauer Testing, Cryptococcus neoformens; assay type: cell-based; conditions: 10 μl of 10 mg/mL per disk, 30° C., 16 hours
Description: The hydroxyitraconazole isomers were tested for biological activity according three different assays. Table 2 summarizes the results of Kirby-Bauer Testing against three actively growing cultures: Candida albicans, Cryptococcus neoformens and Saccromyces cerevisiae.
Actively growing cultures of Candida albicans, Cryptococcus neoformens and Saccharomyces cerevisiae were prepared as described above. The cultures were diluted to a 0.5 McFarland standard and swabbed onto a 150 mm Sabouraud Dextrose agar plates. Paper disks (7 mm) were placed onto the agar plates using a disk dispenser. Next 10 μl of 10 mg/mL solutions of each sample hydroxy-itraconazole was pipetted onto separate paper disks. The plates were then incubated at 30° C. for 16 hours. Zones of inhibition were then measured in mm.

cytochrome P450 3A4 [8] = target: T1, cytochrome P450 3A4; experiment: Inhibition of cytochrome P450 3A4 (testosterone 6β-hydroxylase activity)
Description: The IC50 values were determined by the appearance of 6β-hydroxytestosterone after incubation with testosterone. […] Of greater clinical significance is the ratio of the IC50 for 3A4 to the MIC for C. albicans 44203.

T1 sequence (P08684 whole entry): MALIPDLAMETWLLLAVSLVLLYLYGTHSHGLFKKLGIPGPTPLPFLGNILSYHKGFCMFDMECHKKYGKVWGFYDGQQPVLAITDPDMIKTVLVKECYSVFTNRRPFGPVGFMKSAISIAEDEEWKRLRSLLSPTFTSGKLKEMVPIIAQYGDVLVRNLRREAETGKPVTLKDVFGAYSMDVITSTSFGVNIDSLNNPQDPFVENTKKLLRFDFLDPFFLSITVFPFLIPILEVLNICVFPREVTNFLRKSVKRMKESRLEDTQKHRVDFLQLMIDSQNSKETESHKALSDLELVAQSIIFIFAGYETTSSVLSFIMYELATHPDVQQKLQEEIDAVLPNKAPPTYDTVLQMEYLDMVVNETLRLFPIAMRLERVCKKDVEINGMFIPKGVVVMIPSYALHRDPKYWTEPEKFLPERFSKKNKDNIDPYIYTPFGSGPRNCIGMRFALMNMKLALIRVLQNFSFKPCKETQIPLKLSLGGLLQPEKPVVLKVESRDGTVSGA

CCC(C)n1ncn(-c2ccc(N3CCN(c4ccc(OC[C@H]5CO[C@](Cn6cncn6)(c6ccc(Cl)cc6Cl)O5)cc4)CC3)cc2)c1=O (relative stereo) [itraconazole, 4-[4-[4-[4-[[2-(2,4-dichlorophenyl)-2-(1H-1,2,4-triazol-1-ylmethyl)-1,3-dioxolan-4-yl]methoxy]phenyl]-1-piperazinyl]phenyl]-2,4-dihydro-2-(1-methylpropyl)-3H-1,2,4-triazol-3-one]
Adverse effects ([1]; administration of itraconazole): hepatotoxicity and inhibition of drug metabolism in the liver; also recorded: Hypersensitivity reactions including urticaria and elevations in serum liver enzymes | Torsades de Pointes ([1]; racemic itraconazole concurrently with terfenadine): Torsades de Pointes, has been reported | Effect of serum on antifungal activity (fungi and bacteria; Sabouraud broth containing 10% inactivated bovine serum): enhanced in vitro | Inhibition of growth (fungi and bacteria; Sabouraud broth, 14 days, Microsporum canis, Trichophyton mentagrophytes, Candida albicans, Aspergillus spp. and others): Complete or marked inhibition of growth | Water solubility ([2]; LOD: 5000 μV*sec, order-of-magnitude accuracy below LOD, 3+4 and 11+12 ±10%, listed as Itraconazole): such low water solubility that it could not be determined by this method | Water solubility ([2]; LOD: 5000 μV*sec, order-of-magnitude accuracy below LOD, 3+4 and 11+12 ±10%, listed as ±Itraconazole): not detected | zone of inhibition at 10000 µg/mL (Sacchromyces cerevisae): 15 mm | Effect on synthesis of ergosterol (synthesis of ergosterol): impairs the synthesis of ergosterol | Urinary excretion of metabolites ([3]; in most subjects): no metabolites are excreted in the urine | Absorption following oral administration ([3]; oral): slowly absorbed | Pharmacokinetic behavior ([3]; oral): nonlinear | MIC (Candida albicans [4]): 0.06 µg/mL (≈ 0.085 µM)

C[C@@H](O)[C@H](C)n1ncn(-c2ccc(N3CCN(c4ccc(OC[C@H]5CO[C@](Cn6cncn6)(c6ccc(Cl)cc6Cl)O5)cc4)CC3)cc2)c1=O [Compound 1]
zone of inhibition at 10000 µg/mL (Candida albicans [5]): 22 mm | Inhibition of P450 3A4 in words (cytochrome P450 3A4 [6]): notably less inhibition of the P450 3A4 enzyme than the 2S,4R isomers | MIC (A. fumigatis): 0.137 µg/mL (≈ 0.19 µM) | MIC (Cr. neoformens): 0.39 µg/mL (≈ 0.54 µM) | zone of inhibition at 10000 µg/mL (Aspergillis): 27 mm | MIC (S. cerevisae): 0.195 µg/mL (≈ 0.27 µM) | solubility [7]: 0.051 µg/mL | solubility ([2]; water, LOD: 5000 μV*sec, order-of-magnitude accuracy below LOD, 3+4 and 11+12 ±10%): 0.051 µg/mL (≈ 0.0707 µM) | Area ([2]; λmax = 260 nm, LOD 5000 μV*sec): 1499 μV*sec | zone of inhibition at 10000 µg/mL (Sacchromyces cerevisae): 22 mm | zone of inhibition at 10000 µg/mL (Cryptococcus neoformens): 28 mm | IC50 (cytochrome P450 3A4 [8]): 2800 nM | selectivity ratio (cytochrome P450 3A4 [8]): 56 | IC50/MIC ratio in words (cytochrome P450 3A4 [8]; therapeutic index, 3A4 vs C. albicans 44203): excellent results | MIC (Candida albicans [4]; C. albicans strain 10231 (Table 3), read-out: Antifungal MIC): 1 µg/mL (≈ 1.39 µM) | MIC (Candida albicans [4]; C. albicans strain 28516 (Table 3), read-out: Antifungal MIC): 0.25 µg/mL (≈ 0.346 µM) | MIC (Candida albicans [4]; C. albicans strain 28815 (Table 3), read-out: Antifungal MIC): 0.125 µg/mL (≈ 0.173 µM) | MIC (Candida albicans [4]; C. albicans strain 44203 (Table 3), read-out: Antifungal MIC): 0.05 µg/mL (≈ 0.0693 µM) | MIC (Candida albicans [4]; C. albicans strain 44373 (Table 3), read-out: Antifungal MIC): 0.5 µg/mL (≈ 0.693 µM) | MIC (Candida albicans [4]; C. albicans strain 62342 (Table 3), read-out: Antifungal MIC): 0.5 µg/mL (≈ 0.693 µM) | MIC (Candida albicans [4]; Candida albicans strain 44203 (Table 4), read-out: MIC): 0.05 µg/mL (≈ 0.0693 µM)

— patent publication US6147077A, “2R,4S-hydroxyitraconazole isomers” (priority 1999, dated 2000)
